Tests used:
UTI89 bacteria = experiment: Biofilm inhibition assay with UTI89 bacteria; assay type: cell-based; details: read-out: Biofilm prevention IC50
Description: The biofilm inhibition assay was performed with UTI89 bacteria as previously described (L. Cegelski, J. S. Pinkner, N. D. Hammer, C. K. Cusumano, C. S. Hung, E. Chorell, V. Aberg, J. N. Walker, P. C. Seed, F. Almqvist, M. R. Chapman, S. J. Hultgren Nature Chem. Biol. 2009, 5, 913-919). Compounds not listed were not tested.

FimHL = molecular target: T1, FimHL (Escherichia coli, UniProt P08191); experiment: Differential scanning fluorimetry (DSF) with purified FimHL; assay type: binding; details: FimHL 10 μM with mannoside 100 μM, SYPRO Orange, HEPES pH 7.5; Tm from Boltzmann fit
T1 construct: Purified FimHL (10 μM) in the absence or presence of mannoside (100 μM)
Description: Purified FimHL (10 μM) in the absence or presence of mannoside (100 μM) was combined with 5×SYPRO Orange in a 50 μl reaction mixture buffered in 20 mM HEPES pH 7.5, 150 mM NaCl (HBS) and 0.4% DMSO. Binding equilibria were established by allowing the reaction mixtures to incubate at 23° C. for 30 min. These reaction mixtures were then placed in 96-well clear-bottom PCR plates and subjected to a melt curve from 20-90° C. in 0.5° C. increments of 15 seconds, each followed by a fluorescence read of the “HEX” channel in a Bio-Rad CFX96 thermocycler (Bio-Rad, Hercules, Calif.). Melt curves were fitted to the Boltzmann equation (y=A2+(A1−A2)/(1+exp((x−xo)/dx)) where xo is the Tm) to determine the melting temperature (Tm) using GraphPad Prism 6 (San Diego Calif.). Melting temperatures are represented as the mean and standard error of two biological replicates, each of which consisted of three technical replicates. Compounds not listed were not tested.

FimH = molecular target: T2, FimH (Escherichia coli, UniProt Q1R2J4); assay type: cell-based; details: concentration reducing bacterial agglutination of guinea pig red blood cells by greater than 90%; UTI89 bacteria
T2 construct: performed with UTI89 bacteria and guinea pig red blood cells; endogenous in cells; host or cells: UTI89 bacteria (whole cells, type 1 piliated)
Description: The hemagglutination inhibition (HAI) assay was performed with UTI89 bacteria and guinea pig red blood cells, as previously described (S. J. Hultgren, W. R. Schwan, A. J. Schaeffer, J. L. Duncan Infect. Immun. 1986, 54, 613-620).

Compound | IC50 (UTI89 bacteria) [nM] | DSF Melting Temp (FimHL) [°C] | HAI titer EC>90 (FimH) [µM]
Cc1cc(-c2ccc3c(c2)C(=O)NCC3)ccc1[C@@H](O)[C@H]1O[C@H](CO)[C@@H](O)[C@H](O)[C@@H]1O [Example 4, 7-(4-((R)-hydroxy((2R,3S,4S,5S,6R)-3,4,5-trihydroxy-6-(hydroxymethyl)tetrahydro-2H-pyran-2-yl)methyl)-3-methylphenyl)-3,4-dihydroisoquinolin-1 (2H)-one] | 40 | 76.06 | 0.008
Cc1cc(-c2ccc3ccnc(N)c3c2)ccc1[C@@H](O)[C@H]1O[C@H](CO)[C@@H](O)[C@H](O)[C@@H]1O [Example 3, (2R,3S,4S,5S,6R)-2-((R)-(4-(1-aminoisoquinolin-7-yl)-2-methylphenyl)(hydroxy)methyl)-6-(hydroxymethyl)tetrahydro-2H-pyran-3,4,5-triol] | 40 | 77.7 | 0.006
Cc1cc(-c2ccc3cc[nH]c(=O)c3c2)ccc1[C@@H](O)[C@H]1O[C@H](CO)[C@@H](O)[C@H](O)[C@@H]1O [Example 2, 7-(4-((R)-hydroxy((2R,3S,4S,5S,6R)-3,4,5-trihydroxy-6-(hydroxymethyl)tetrahydro-2H-pyran-2-yl)methyl)-3-methylphenyl)isoquinolin-1 (2H)-one] | 30 | 77.5 | 0.006
Cc1cc(-c2cccc3cnccc23)ccc1[C@@H](O)[C@H]1O[C@H](CO)[C@@H](O)[C@H](O)[C@@H]1O [Example 1, (2R,3S,4S,5S,6R)-2-((R)-hydroxy(4-(isoquinolin-5-yl)-2-methylphenyl)methyl)-6-(hydroxymethyl)tetrahydro-2H-pyran-3,4,5-triol] | 600 | 74.6 | 0.125

— patent publication US20200002303A1, “C-GLYCOSIDE COMPOUNDS USEFUL FOR TREATING DISEASE” (Fimbrion Therapeutics, Inc., priority 2016, published 2020)
